Counter-ions that a name gives are not always drawn. Bounds are passed on as bounds.

This is an account of results in patent publication US10179791B2, “Spiro-cyclic amine derivatives as S1P modulators” (AbbVie B.V., priority 2010, dated 2019).

What all share (assay type): cell-based
For experiment [1], the target named is human S1P3 receptor (Homo sapiens (Human), UniProt Q99500). Description: In vitro functional activity (agonism) on human S1P3 receptors, CHO-human-S1P3-Aequorin assay. Particulars: aequorin luminescence, CHO K1 cells, 3 independent experiments, read-out: S1P3 pEC50 (converted). The source says: In Vitro Functional Activity (Agonism) on Human S1P3 Receptors
The CHO-human-S1P3-Aeqorin assay (CHO/Gα16/AEQ/h-S1P3) was established at Solvay Pharmaceuticals. The plasmid DNA coding for the S1P3 receptor (accession number in GenBank NM_005226 was purchased from UMR cDNA resource Centre (Rolla, Mo.). The pcDNA3.1/hS1P3 construct carrying the mitochondrially targeted apo-Aeqorin and Gal6 protein was transfected in CHO K1 cell-line.
(§1) Human-S1P3-Aequorin cells express mitochondrial targeted apo-Aequorin. Cells have to be loaded with coelanterazine, in order to reconstitute active Aequorin. After binding of agonists to the human S1P3 receptor the intracellular calcium concentration increases and binding of calcium to the apo-Aequorin/coelenterazine complex leads to an oxidation reaction of coelenterazine, which results in the production of apo-Aequorin, coelenteramide, CO2 and light ([…]max 469 nm). This luminescent response is dependent on the agonist concentration. Luminescence is measured using the MicroBeta Jet (Perkin Elmer). Agonistic effects of compounds are expressed as pEC50. Compounds were tested at a 10 points half log concentration range, and 3 independent experiments were performed in single point's measurements.

In experiment [2] the target is human S1P5 receptor (Homo sapiens (Human), UniProt Q9H228). Description: In vitro functional activity (agonism) on human S1P5 receptors, CHO-human-S1P5-Aequorin assay. The following applies: aequorin luminescence, CHO cells, 3 independent experiments.
Description: In Vitro Functional Activity (Agonism) on Human S1P5 Receptors
as §1, with “The CHO-human-S1P5-Aeqorin assay was bought from Euroscreen, Brussels (Euroscreen, Technical dossier, Human Lysophospholid S1P5 (Edg8) receptor, DNA clone and CHO AequoScreen™ recombinant cell-line, catalog no: ES-593-A, September 2006). Human-S1P5-Aequorin” for “Human-S1P3-Aequorin”, “S1P5” for “S1P3”

Experiment [3] concerns the target T1, human S1P1 (Homo sapiens (Human), UniProt P21453). Description: In vitro functional activity (agonism) on human S1P1 receptors (method B), CHO-K1-human S1P1-cAMP assay. On the procedure: In Vitro Functional Activity (Agonism) on Human S1P1 Receptors (Method B)
Recombinant CHO-K1 cells expressing human S1P1, grown to mid-log Phase in culture media without antibiotics, detached, centrifuged and re-suspended. For agonist testing cells are mixed with compound and Forskolin and incubated at room temperature. Cells are lyses and cAMP concentration are estimated, according to the manufacturer specification, With the HTRF kit from CIS-BIO International (cat no 62AM2PEB).
Compounds were tested at a 10 points half log concentration range duplicated in 1 experiment.
(Cyclic AMP is a second messenger, typically raised through Gs and lowered through Gi signalling.)

Experiment [4] concerns the target T1, human S1P1. Description: In vitro functional activity (agonism) on human S1P1 receptors (method A), CHO-K1-human-S1P1-Aequorin assay.
Description: In Vitro Functional Activity (Agonism) on Human S1P1 Receptors (Method A)
as §1, with “Human-S1P1-Aequorin” for “Human-S1P3-Aequorin”, “S1P1” for “S1P3”, “2” for “3”

The mark [5] stands for this setting: agonism, determined using method B (cAMP HTRF with Forskolin, CHO-K1 cells), read-out: S1P1^B pEC50 (converted).
The mark [6] stands for this setting: agonism, determined using method A (aequorin luminescence, CHO-K1 cells), 2 independent experiments, read-out: S1P1^A pEC50 (converted).

human S1P3 receptor, sequence (Q99500 whole entry): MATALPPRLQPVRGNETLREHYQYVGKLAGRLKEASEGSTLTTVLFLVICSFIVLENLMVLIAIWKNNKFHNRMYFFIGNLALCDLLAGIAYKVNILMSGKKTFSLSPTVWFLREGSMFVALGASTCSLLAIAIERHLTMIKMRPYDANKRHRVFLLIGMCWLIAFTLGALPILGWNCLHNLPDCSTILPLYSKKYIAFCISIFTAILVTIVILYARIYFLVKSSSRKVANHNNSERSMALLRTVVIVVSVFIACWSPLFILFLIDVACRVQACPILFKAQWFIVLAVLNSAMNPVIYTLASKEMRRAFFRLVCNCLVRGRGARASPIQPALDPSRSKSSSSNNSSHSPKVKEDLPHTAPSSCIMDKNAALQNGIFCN
human S1P5 receptor, sequence (Q9H228 whole entry): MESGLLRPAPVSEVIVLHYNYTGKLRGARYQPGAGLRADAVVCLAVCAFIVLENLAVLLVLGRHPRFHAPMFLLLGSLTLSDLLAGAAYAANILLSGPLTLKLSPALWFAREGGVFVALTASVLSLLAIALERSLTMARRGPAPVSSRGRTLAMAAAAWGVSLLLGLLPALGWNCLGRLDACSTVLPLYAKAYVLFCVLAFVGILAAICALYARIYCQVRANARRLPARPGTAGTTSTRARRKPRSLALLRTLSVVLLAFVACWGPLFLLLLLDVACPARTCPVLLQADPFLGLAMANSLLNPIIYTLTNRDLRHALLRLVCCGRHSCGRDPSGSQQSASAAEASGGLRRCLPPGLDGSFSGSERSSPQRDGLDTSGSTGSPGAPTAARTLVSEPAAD
T1 sequence (P21453 whole entry): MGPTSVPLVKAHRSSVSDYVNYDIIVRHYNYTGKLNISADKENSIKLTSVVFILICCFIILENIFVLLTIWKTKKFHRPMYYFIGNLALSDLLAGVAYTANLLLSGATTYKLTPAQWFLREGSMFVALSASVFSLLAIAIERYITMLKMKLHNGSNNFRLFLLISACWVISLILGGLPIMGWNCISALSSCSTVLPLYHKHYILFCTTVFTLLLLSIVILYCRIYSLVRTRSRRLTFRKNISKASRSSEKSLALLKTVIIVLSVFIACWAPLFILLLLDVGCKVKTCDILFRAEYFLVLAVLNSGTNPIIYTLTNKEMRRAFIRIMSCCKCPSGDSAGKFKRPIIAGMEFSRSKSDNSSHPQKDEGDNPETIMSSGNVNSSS

On to `CCc1ccc(Cl)c(COc2ccc3c(c2)OCC32CCN(CCC(=O)O)CC2)c1` [Compound 51, 3-{6-[(2-Chloro-5-ethylphenyl)methoxy]-2H-spiro[1-benzofuran-3,4′-piperidine]-1′-yl}propanoic acid hydrochloride], for which the EC50 in experiment [1] was over 10 µM; in experiment [3] (setting [5]), over 3.16 µM. The “S1P5 pEC50” value in experiment [2] was determined as 6.6.

For the compound `O=C(O)CCN1CCC2(CC1)COc1cc(OC3CCc4cc(Cl)cc(Cl)c43)ccc12` (stereo not shown) [Compound 79, 3-{6-[(5,7-Dichloro-2,3-dihydro-1H-inden-1-yl)oxy]-2H-spiro[1-benzofuran-3,4′-piperidine]-1′-yl}propanoic acid], the EC50 is over 10 µM in experiment [1] and 2 µM in experiment [3] (setting [5]). Moreover, the “S1P5 pEC50” value in experiment [2] stood at 7.2.

As to `O=C(O)CCN1CCC2(CC1)COc1cc(C3CC3c3c(Cl)cccc3Cl)ccc12` (stereo not shown) [Compound 178, 3-{6-[2-(2,6-Dichlorophenyl)cyclopropyl]-2H-spiro[1-benzo-furan-3,4′-piperidine]-1′-yl}propanoic acid hydrochloride], the EC50 in experiment [1] was 3.16 µM; in experiment [3] (setting [5]), over 3.16 µM. Moreover, the “S1P5 pEC50” value in experiment [2] is on record as 7.1.

As to `O=C(O)CCN1CCC2(CC1)COc1cc(OCc3c(F)cccc3Cl)ccc12` [Compound 38, 3-{6-[(2-Chloro-6-fluorphenyl)methoxy]-2H-spiro[1-benzofuran-3,4′-piperidine]-1′-yl}propanoic acid hydrochloride], the EC50 is over 10 µM in experiment [1] and over 3.16 µM in experiment [3]. Besides, the “S1P5 pEC50” value in experiment [2] is on record as 6.7.

Consider `Cc1cc(Cl)c(COc2ccc3c(c2)OCC32CCN(CCC(=O)O)CC2)c(Cl)c1` [Compound 59, 3-{6-[(2,6-Dichloro-4-methylphenyl)methoxy]-2H-spiro[1-benzofuran-3,4′-piperidine]-1′-yl)propanoic acid hydrochloride], for which the EC50 in experiment [1] was over 10 µM; in experiment [3] (setting [5]), over 3.16 µM. Besides, the “S1P5 pEC50” value in experiment [2] stood at 7.8.

On to `O=C(O)CCCN1CCC2(CC1)COc1cc(OCc3c(Cl)cccc3Cl)ccc12` [Compound 128, 4-{6-[(2,6-Dichlorophenyl)methoxy]-2H-spiro[1-benzofuran-3,4′-piperidine]-1′-yl}butanoic acid hydrochloride], for which the EC50 was over 10 µM in experiment [1] and over 3.16 µM in experiment [3] (setting [5]). The “S1P5 pEC50” value in experiment [2] was found to be 7.6.

Turning to `O=C(O)CCN1CCC2(CC1)COc1cc(Oc3c(Cl)cccc3Cl)ccc12` [Compound 248, 3-[6-(2,6-Dichlorophenoxy)-2H-spiro[1-benzofuran-3,4′-piperidine]-1′-yl]propanoic acid hydrochloride], the EC50 was over 10 µM in experiment [1] and over 3.16 µM in experiment [3] (setting [5]). The “S1P5 pEC50” value in experiment [2] is 6.5.

Regarding `CCc1ccc(Cl)c(COc2ccc3c(c2)OCC32CCN(CCC(=O)O)CC2)c1Cl` [Compound 68, 3-{6-[(2,6-Dichloro-3-ethylphenyl)methoxy]-2H-spiro[1-benzofuran-3,4′-piperidine]-1′-yl}propanoic acid hydrochloride], the values for the EC50 in experiment [1] and in experiment [3] (setting [5]) were over 10 µM and over 3.16 µM, respectively. For the same compound, the “S1P5 pEC50” value in experiment [2] was found to be 7.5.

Turning to `CC(C)c1cccc(Cl)c1COc1ccc2c(c1)OCC21CCN(CCC(=O)O)CC1` [Compound 74, 3-(6-{[2-Chloro-6-(propan-2-yl)phenyl]methoxy}-2H-spiro[1-benzofuran-3,4′-piperidine]-1′-yl)propanoic acid hydrochloride], in experiment [3], the EC50 was over 3.16 µM.

For `CC(CN1CCC2(CC1)COc1cc(OCc3c(Cl)cccc3Cl)ccc12)C(=O)O` (stereo not shown) [Compound 100, 3-{6-[(2,6-Dichlorophenyl)methoxy]-2H-spiro[1-benzofuran-3,4′-piperidine]-1′-yl}-2-methylpropanoic acid hydrochloride], the values for the EC50 in experiment [1] and in experiment [3] (setting [5]) were over 10 µM and over 3.16 µM, respectively. The “S1P5 pEC50” value in experiment [2] turned out to be 7.

Regarding `CCc1ccc(Cl)c(C2CC2c2ccc3c(c2)OCC32CCN(CCC(=O)O)CC2)c1` (stereo not shown) [Compound 182, 3-{6-[2-(2-Chloro-5-ethylphenyl)cyclopropyl]-2H-spiro[1-benzofuran-3,4′-piperidine]-1′-yl}propanoic acid hydrochloride], the EC50 in experiment [1] is over 10 µM; in experiment [3] (setting [5]), over 3.16 µM. Further, the “S1P5 pEC50” value in experiment [2] came out at 7.4.

For `CCc1cccc(Cl)c1CSc1ccc2c(c1)OCC21CCN(CCC(=O)O)CC1` [Compound 140, 3-(6-{[(2-Chloro-6-ethylphenyl)methyl]sulfanyl}-2H-spiro[1-benzofuran-3,4′-piperidine]-1′-yl}propanoic acid hydrochloride], the EC50 in experiment [1] was over 10 µM; in experiment [4], 0.158 µM. In addition, the “S1P5 pEC50” value in experiment [2] is on record as 8.5.

Turning to `O=C(O)CCCN1CCC2(CC1)COc1cc(OCc3c(Cl)cccc3C3CC3)ccc12` [Compound 121, 4-{6-[(2-Chloro-6-cyclopropylphenyl)methoxy]-2H-spiro[1-benzofuran-3,4′-piperidine]-1′-yl}butanoic acid hydrochloride], the EC50 in experiment [1] was over 10 µM; in experiment [4] (setting [6]), 5.01 µM. Besides, the “S1P5 pEC50” value in experiment [2] stood at 7.1.

As for `O=C(O)CCN1CCC2(CC1)COc1cc(/C=C/c3c(Cl)cccc3Cl)ccc12` [Compound 160, 3-{6-[(E)-2-(2,6-Dichlorophenyl)ethenyl]-2H-spiro[1-benzofuran-3,4′-piperidine]-1′-yl}propanoic acid hydrochloride], the EC50 in experiment [1] was over 10 µM; in experiment [3] (setting [5]) it was over 3.16 µM. Also, the “S1P5 pEC50” value in experiment [2] stood at 7.7.

Consider `O=C(O)CCN1CCC2(CC1)COc1cc(OCc3c(Cl)cccc3OC(F)(F)F)ccc12` [Compound 77, 3-(6-{[2-Chloro-6-(trifluoromethoxy)phenyl]methoxy}-2H-spiro[1-benzofuran-3,4′-piperidine]-1′-yl)propanoic acid hydrochloride], for which the EC50 in experiment [1] was over 10 µM; in experiment [4] (setting [6]) it was 6.31 µM. Also, the “S1P5 pEC50” value in experiment [2] amounted to 7.6.

Turning to `O=C(O)CN1CCC2(CC1)COc1cc(C3CC3c3c(Cl)cccc3Cl)ccc12` (stereo not shown) [Compound 176, 2-{6-[2-(2,6-Dichlorophenyl)cyclopropyl]-2H-spiro[1-benzo-furan-3,4′-piperidine]-1′-yl}acetic acid hydrochloride], the EC50 in experiment [1] is over 10 µM; in experiment [4] (setting [6]) it was over 31.6 µM. The “S1P5 pEC50” value in experiment [2] is reported as 7.6.

Regarding `O=C(O)CCN1CCC2(CC1)COc1cc(OCc3c(Cl)cccc3C3CC3)ccc12` [Compound 75, 3-{6-[(2-Chloro-6-cyclopropyl)phenyl)methoxy]-2H-spiro[1-benzofuran-3,4′-piperidine]-1′-yl}propanoic acid hydrochloride], the results for the EC50 in experiment [1] and in experiment [4] (setting [6]) were over 10 µM and 2.51 µM, respectively. Also, the “S1P5 pEC50” value in experiment [2] turned out to be 7.7.

As for `CCCCCCCOc1ccc2c(c1F)OCC21CCN(CCC(=O)O)CC1` [Compound 276, 3-[7-fluoro-6-(heptyloxy)-2H-spiro[1-benzofuran-3,4′-piperidine]-1′-yl]propanoic acid], the EC50 is over 10 µM in experiment [1] and over 31.6 µM in experiment [4] (setting [6]). The “S1P5 pEC50” value in experiment [2] is 7.1.

With `CC(C)c1cccc(Cl)c1COc1ccc2c(c1)OCC21CCN(CCCC(=O)O)CC1` [Compound 127, 4-(6-{[2-Chloro-6-(propan-2-yl)phenyl]methoxy}-2H-spiro[1-benzofuran-3,4′-piperidine]-1′-yl)butanoic acid hydrochloride], the EC50 in experiment [1] was 2.51 µM; in experiment [4] (setting [6]) it was 7.94 µM. Also, the “S1P5 pEC50” value in experiment [2] is listed as 6.9.
